Data from US8648042B2, “Pharmaceutical compositions” (priority 2011, dated 2014).

Key:
pUC119 plasmid DNA = assay: Protection of plasmid DNA from H2O2 and UV exposure (electrophoresis); type: biochemical; settings: 20 mM H2O2 + 20 mJ/m^2 UV; Amifostine 2000 μg/ml, GP-A 4000 μg/ml; FIG. 3
Method: In this example, we examined the ability of GP-A in protecting plasmid DNA from hydrogen peroxide (H2O2) and UV exposure, which was also an indicator of the ability of quenching free radicals because free radicals tend to attack DNA structure. Amifostine, GP-Amifostine and GP were respectively dissolved in dd-water at various concentrations.
The above-nine experimental groups were then mixed with 3 μl loading dye for electrophoresis in order to observe the integrity of the plasmid DNA.

[1] = cited from earlier work
[2] = patients, intravenously before each fraction of radiation therapy; cited from earlier work
[3] = NSCLC patients, chemoradiation therapy, Arm 2; cited from earlier work
[4] = cited from earlier work; remark: listed apart in the source

## NCCCNCCSP(=O)(O)O [Amifostine, S-2-(3-aminopropylamino)ethyl dihydrogen phosphorothioate]
pUC119 plasmid DNA
  protection ability against UV & H2O2 treated plasmid DNA: solid and slight protection ability
[1]; brain and spinal cord
  protection of brain and spinal cord from radiation damage: not protected
[1]; esophagus, lung, kidney, liver, bone marrow, immune system, skin, colon, small bowel, salivary gland, oral mucosa, testis
  protection of normal tissues from radiation damage (factor): ≤ 3
[1]; in vivo
  distribution between normal tissues and tumors: selectively concentrated in normal tissues but passively absorbed by tumors
[1]; tumors
  sparing of tumors from the effects of radiation or chemotherapy: no evidence that tumors were spared
[2]
  severity of acute and late xerostomia: significant reduction
[3]
  Median survival time: 19 months
[4]; human
  discharge from a human body: within one hour
[4]; patients, systemic administration
  undesirable side-effects of systemic administration: nausea, vomiting, emesis and hypotension, as well as flushing or feeling of warmth, chills or feeling of coldness, dizziness, somnolence, hiccups and sneezing
